# Source: US5225543A, “Receptors method for purification of G protein-linked” (priority 1991, dated 1993)
# Where no end group is shown, it is not given here. The star is where a group is joined. 125I = [125I]*
# Legend:
# [1] = biological target: T1, SRIF receptor (GH4 C1 membranes) (Rattus norvegicus, UniProt P30680); assay: Scatchard analysis of [^125 I]-labelled ligand binding to GH4 C1 membranes (FIG. 5); settings: read-out: dissociation constant (KD)
# T1 construct: GH4 C1 rat pituitary tumor cells; endogenous in cells; host or cells: GH4 C1 rat pituitary tumor cells (isolated membranes)
# T1 sequence (P30680 whole entry): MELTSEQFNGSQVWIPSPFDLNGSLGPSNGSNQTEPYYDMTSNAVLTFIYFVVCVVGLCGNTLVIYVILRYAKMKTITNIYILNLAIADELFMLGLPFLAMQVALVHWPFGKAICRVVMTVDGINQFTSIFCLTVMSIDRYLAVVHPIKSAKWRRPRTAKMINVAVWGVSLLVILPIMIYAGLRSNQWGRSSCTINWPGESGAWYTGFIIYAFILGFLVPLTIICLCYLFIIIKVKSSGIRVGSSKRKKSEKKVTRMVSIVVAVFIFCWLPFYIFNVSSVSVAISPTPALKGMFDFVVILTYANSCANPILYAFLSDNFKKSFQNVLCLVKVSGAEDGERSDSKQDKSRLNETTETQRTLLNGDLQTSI
# Procedure: 1. Standard Binding Assays--Binding assays are done in a binding buffer containing 50 mM HEPES (pH 7.4), 0.5% BSA and 5 mM MgCl2. The standard assay for [^125 I]SRIF analog binding to GH4 CL membranes, done in 96 well microtiter plates (Dynatech Immulon II Removawell plates), is carried out as follows: 1. Radioligand is diluted in binding buffer+PMSF/Baci to the desired cpm per vol. of 50 μl and then 50 μl aliquots are added to the wells. For non-specific binding samples, 5 μl of 40 μM cold S14 is also added per well. 2. Binding is initiated by adding 150 μl per well of membrane diluted to the desired concentration (10-30 ug membrane protein/well) in binding buffer+PMSF/Baci. Plates are then covered with Linbro mylar plate sealers (Flow Labs) and placed on a Dynatech Microshaker II and binding is allowed to proceed at room temperature for 1-2 hours. Binding is stopped by centrifuging the plate for 15 minutes at 2,000×g. The supernatants are dumped off and membrane pellets washed once by addition of 200 μl of ice cold binding buffer, brief shaking and recentrifugation. Finally the individual wells are placed in 12×75 mm tubes and counted in an LKB Gammamaster counter (78% efficiency). Specific binding by this method is identical to that measured when free ligand is removed by rapid (3-5 seconds) filtration and washing on polyethyleneimine-coated glass fiber filters.
# 3. […]
# [2] = system: somatostatin receptor (GH4 C1 membranes); assay: Binding, CHAPS solubilization and recovery of SRIF receptor:[^125 I]Tyr11-S14 complex (FIG. 1, Table 1); design: species or system rat; settings: for CPM recovered, B. Nonspecific: 10^-6 M cold S14; for CPM recovered, A. Total: without cold S14
# Procedure: FIG. 1 illustrates separation of receptor-bound and free [^125 I]Tyr11-S14. Radioligand is bound to GH4 C1 membranes as described in "Materials and Methods". The binding incubations contain 2 mg membrane protein and 6×10^6 cpm of radioligand in 8 ml. A non-specific binding sample is identical except for the addition of 1 uM cold S14. Initial cpm bound were 1.43×10^6 (total) and 0.65×10^6 (non-specific). After the binding step, membranes are resuspended at 1 […] in the presence of 1% CHAPS detergent in a buffer containing 25 mM Tris (pH 8), 10% glycerol and 0.2 mM CaCl2 (solubilization buffer). A protease inhibitor cocktail ("100×4 pase" described in "Materials and Methods") is also added as 1% of final volume. Solubilization is allowed to proceed for 1 hour on ice, and then the mixture is centrifuged for 30 minutes at 100,000×g. CPM in the 100,000×g supernatant were 0.61×10^6 (total) and 0.29×10^6 (non-specific). Free [^125 I]Tyr11-S14 is added to the non-specific binding sample to give equal cpm in the two samples. Then 0.25 ml aliquots of each supernatant ([…]) are loaded onto 0.8×13 cm columns of Sephadex G-50. The columns are eluted at a flow rate of 0.7 ml/min with solubilization buffer + 1% BSA. 0.18 ml fractions are collected and counted for radioactivity.
# 0.18 ml samples are collected. […] The mixture is held on ice for 15 minutes.
# [^125 I]Tyr11-S14 is bound to GH4 C1 membranes as described above ("Methods: Receptor Binding Methods, 4."), except that these binding assays contain 2 mg membrane protein in 8 ml (0.25 mg membrane protein/ml). Radioligand is […]. A non-specific binding sample is identical except for the addition of 1 uM cold S14. Initial cpm bound is 1.43×10^6 (total) and 0.65×10^6 (nonspecific). After the binding step, membranes are solubilized in solubilization buffer containing 0.2 mM CaCl2 and 1% CHAPS ("Methods: Membrane Solubilization"). CPM in the 100,000×g supernatants are 0.61×10^6 (total) and 0.29×10^6 (nonspecific). Free [^125 I]Tyr11-S14 is added to the nonspecific binding sample to give equal cpm in the two samples. Then 0.25 ml aliquots of each supernatant (75-80,000 cpm) are loaded onto 0.8×13 cm columns of Sephadex G-50. The columns are eluted as described in "Methods: Assay of Solubilized Receptors, 1." and the fractions counted for radioactivity.
# A peak of high MW material eluting in the column void volume (peak I; 34% of total cpm) contain specifically bound radioactivity. […] Peak II in FIG. 1 represents free [^125 I]Tyr11-S14, and is the major peak in the nonspecific binding sample. In FIG. 1 it is important to note that just before applying samples to the columns, free [^125 I]Tyr11-S14 is added to the non-specific binding sample to equalize the cpm in the two samples. […] The GFB/PEI method is used in subsequent experiments.
# 0.25 ml samples containing solubilized R:L complex, from the preparation described in FIG. 1 are separated from free radioligand either by: (1) chromatography on Sephadex G-50 (see FIG. 1), (2) Precipitation with polyethyleneglycol+bovine gamma globulin with collection of the precipitates on GFB filters or (3) adsorption on polyethyleneimine-coated,GFB filters (for methods 2 and 3 see "Methods: Assay of Solubilized Receptors, 2 and 3"). Radioactivity recovered in peak I (Method 1) or on filters (Methods 2 and 3) is compared in the Table.
# [3] = biological target: T1, SRIF receptor (GH4 C1 membranes); assay: Binding of [^125 I] biotinyl-SRIF ligands to GH4 C1 membranes (CPM bound/mg); settings: radioligand 0.77×10^6 cpm/ml
# Procedure: 4. Larger scale binding assays to obtain membrane pellets for studies on solubilization of receptor:ligand complex and for receptor purification are also carried out. These are identical to the standard assays except that: (a) Binding is carried out in polypropylene tubes in volumes from 1-250 ml, with the wash step being done in the same volume as initially used for binding, (b) Concentration of membrane protein is always 0.5 mg/ml, (c) For receptor purification, BSA concentration in the binding buffer is reduced to 0.25% and the wash step is done with binding buffer without BSA. This is to reduce BSA contamination of the purified receptor.
# To compare the three biotinyl-SRIF analogs in terms of binding to streptavidin, the following experiment is done. [^125 I]Bio-SRIF analogs are bound to GH4 C1 membranes as described ("Methods: Receptor Binding Methods, 4"). All radioligands are at a concentration of 0.77×10^6 cpm/ml. For each radioligand, a control for non-specific binding is done in the presence of 1 uM cold S14. […] At the times shown, the SA beads are spun down and 100 ul samples of supernatant are counted. The cpm are compared to initial cpm in the sample and % binding to SA is calculated from this. […]
# [4] = system: streptavidin (SA-agarose); assay: Binding of [^125 I]-labelled biotinyl-SRIFs (solubilized R:L complex) to immobilized streptavidin (Table 3)
# Procedure: 3. Adsorption of solubilized R:L complex to streptavidin. Immobilized streptavidin (streptavidin cross-linked to 6% beaded agarose, Pierce Chemical Co.; "SA-agarose") is washed in solubilization buffer and added to the solubilized membranes as 1/30 of the final volume. This mixture is incubated with constant stirring by end-over-end rotation for 4-5 hours at 4°-10° C. Then the mixture is applied to a column and the non-bound material is washed through. Binding of radioligand to SA-agarose is determined by comparing cpm in the 100,000×g supernatant with that in the column effluent after adsorption to SA-agarose. Finally, the column is washed with 12-15 column volumes of solubilization buffer+0.15% deoxycholate:lysolecithin+1/500 (vol/vol) 100×4pase.
# To compare the three biotinyl-SRIF analogs in terms of binding to streptavidin, the following experiment is done. [^125 I]Bio-SRIF analogs are bound to GH4 C1 membranes as described ("Methods: Receptor Binding Methods, 4"). All radioligands are at a concentration of 0.77×10^6 cpm/ml. For each radioligand, a control for non-specific binding is done in the presence of 1 uM cold S14. CPM bound/mg membrane protein after the binding step are as follows: [^125 I]Bio-6C-S14=755,020 (total) and 43,361 (non-specific); [^125 I]Bio-12C=S14=633,134 (total) and 39,538 (nonspecific); [^125 I]Bio-S28=1,065,512 (total) and 35,049 (nonspecific). The membrane pellets are solubilized in solubilization buffer containing 0.15% deoxycholate:lysolecithin and 0.2 mM MgCl2 as described ("Methods: Membrane Solubilization"). […] One ml samples of solubilized membranes are incubated with 0.05 ml vols of streptavidin-agarose at 4°-10° C. on a tube rotator for the times shown. Non-specific binding samples are not done due to the low levels of non-specific binding. At the times shown, the SA beads are spun down and 100 ul samples of supernatant are counted. The cpm are compared to initial cpm in the sample and % binding to SA is calculated from this. Also, it should be noted that binding of cpm from the supernatant is considered to parallel the binding of R:L complex. Several observations confirm that this is a valid assumption.
# CPM are determined for 100 ul samples of initial 100,000×g supernatant (containing soluble R:L complex) and supernatant after incubation with SA-agarose for times shown.
# [5] = GFB/PEI filters, triplicate, SE 5%
# [6] = PEG precipitation, triplicate, SE 5%
substance,measurement,setting,value
"[^125 I]Tyr11-S14: non-biotinylated radioligand, [^125 I]Tyr11-S14 (AGCKNFFWKTY(125I)TSC; ends and bridges not checked; UniProt P61278 103-116, looked up, variant F11Y)",Kd,[1],0.1 nM
same,"Initial cpm bound, nonspecific","[2]; 2 mg membrane protein in 8 ml, plus 1 uM cold S14",0.65×10^6 cpm
same,"Initial cpm bound, total","[2]; 2 mg membrane protein in 8 ml, total",1.43×10^6 cpm
same,peak I (void volume) share of total cpm,"[2]; 1% CHAPS, Sephadex G-50",34 % of total cpm
same,"specifically bound ligand recovered, of initial specifically bound cpm on intact membranes","[2]; 1% CHAPS, Sephadex G-50 peak I",11%
same,"CPM in 100,000×g supernatant, nonspecific","[2]; 1% CHAPS, plus 1 uM cold S14",0.29×10^6 CPM
same,"CPM in 100,000×g supernatant, total","[2]; 1% CHAPS, total",0.61×10^6 CPM
same,Specifically bound ligand recovered (A-B),[2]; GFB/PEI filters,"20,340 CPM"
same,"CPM recovered, B. Nonspecific",[2]; [5],"7,193 CPM"
same,"CPM recovered, A. Total",[2]; [5],"27,533 CPM"
same,Specifically bound ligand recovered (A-B),[2]; PEG precipitation,"17,272 CPM"
same,"CPM recovered, B. Nonspecific",[2]; [6],"7,803 CPM"
same,"CPM recovered, A. Total",[2]; [6],"23,075 CPM"
same,Specifically bound ligand recovered (A-B),[2]; Sephadex G-50,"16,840 CPM"
same,"CPM recovered, B. Nonspecific",[2]; Sephadex G-50,"9,104 CPM"
same,"CPM recovered, A. Total",[2]; Sephadex G-50,"23,944 CPM"
"biotinyl-NH(Leu8, D-Trp22, [^125 I]Tyr25)SRIF [[^125 I]Bio-S28]",Kd,[1],0.2 nM
same,"CPM bound/mg membrane protein, nonspecific",[3]; in presence of 1 uM cold S14,"35,049 CPM bound/mg membrane protein"
same,"CPM bound/mg membrane protein, total",[3]; total,"1,065,512 CPM bound/mg membrane protein"
same,binding of solubilized R:L complex to immobilized streptavidin vs Bio-6C-S14 and Bio-12C-S14,[4],binds somewhat better
same,Initial CPM,"[4]; 100 ul of initial 100,000×g supernatant","92,534 CPM"
same,"% Binding of radioligand to SA-agarose, 1 hour",[4]; 1 hour,66%
same,"% Binding of radioligand to SA-agarose, 3 hours",[4]; 3 hours,82%
same,"Non-bound CPM, 1 hour",[4]; supernatant after 1 hour with SA-agarose,"31,645 CPM"
same,"Non-bound CPM, 3 hours",[4]; supernatant after 3 hours with SA-agarose,"17,098 CPM"
